From ChEMBL document CHEMBL1201862, “PubChem BioAssay data set” (2004)
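A five-concentration, 48-hour dose response in 96-well plates underlies each endpoint, interpolated linearly between surrounding concentrations. At the GI50, growth is halved.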 Calls of active or inactive are those of the source. Rule as the data show it: active = GI50 up to about 1.1 µM and inactive = higher.

Tests used:
Experiment in all cases: NCI anticancer screen, dose series, 48 h
[1] = system: A498
[2] = system: BT-549
[3] = system: CCRF-CEM
[4] = system: EKVX
[5] = system: HCC 2998
[6] = system: K562
[7] = system: MCF7
[8] = system: MDA-MB-231
[9] = system: MDA-MB-435
[10] = system: MDA-N
[11] = system: NCI-H226
[12] = system: NCI/ADR-RES
[13] = system: OVCAR-4
[14] = system: PC-3
[15] = system: SF-268
[16] = system: SNB-75
[17] = system: UACC-257
[18] = system: UACC-62
[19] = system: HL-60
[20] = system: SK-MEL-2

Measured: GI50

N#Cc1c(O)c(C=O)c(=O)n2c1[nH]c1ccccc12
inactive: [1] > 100 µM | [2] > 100 µM | [3] > 100 µM | [4] > 100 µM | [5] > 100 µM | [6] > 100 µM | [7] 44.3 µM | [8] > 100 µM | [9] > 100 µM | [10] > 100 µM | [11] > 100 µM | [12] > 100 µM | [13] > 100 µM | [14] > 100 µM | [15] > 100 µM | [16] > 100 µM | [17] > 100 µM | [18] > 100 µM

CN1C(=O)C23CCCCC2CC1(c1ccccc1)S3 (configuration not stated)
inactive: [1] > 100 µM | [2] 99.3 µM | [4] > 100 µM | [19] 35.7 µM | [6] 71.1 µM | [7] 78.2 µM | [8] 71.1 µM | [9] > 100 µM | [10] > 100 µM | [11] > 100 µM | [12] 38.5 µM | [13] 34.2 µM | [14] 44.1 µM | [15] > 100 µM | [20] 47.5 µM | [17] 18.3 µM | [18] > 100 µM

Cc1ccc(C(=O)NN=C(/N=N/c2cccc(C)c2)c2ccc(N(C)C)cc2)cc1
inactive: [2] > 100 µM | [3] > 100 µM | [4] > 100 µM | [5] > 100 µM | [19] > 100 µM | [6] > 100 µM | [7] > 100 µM | [8] > 100 µM | [9] > 100 µM | [10] 50.9 µM | [11] > 100 µM | [12] > 100 µM | [13] > 100 µM | [14] > 100 µM | [15] > 100 µM | [20] > 100 µM | [17] > 100 µM | [18] > 100 µM

O=C(O)C1C2C=CC(O2)C1C(=O)NCc1ccccn1 (configuration not stated)
inactive: [1] > 100 µM | [2] > 100 µM | [3] > 100 µM | [4] > 100 µM | [19] > 100 µM | [6] > 100 µM | [7] > 100 µM | [8] > 100 µM | [9] > 100 µM | [10] > 100 µM | [11] > 100 µM | [12] > 100 µM | [13] > 100 µM | [14] > 100 µM | [15] > 100 µM | [20] > 100 µM | [16] > 100 µM | [17] > 100 µM | [18] > 100 µM

CCCCCC(=O)OCC1(CO)C/C(=C/CC(C(C)C)C(C)C)C(=O)O1 (configuration not stated)
inactive: [1] > 75 µM | [2] > 75 µM | [3] 16.1 µM | [4] > 75 µM | [5] 59.7 µM | [7] 40.9 µM | [8] > 75 µM | [9] 21.8 µM | [10] 34 µM | [11] > 75 µM | [12] > 75 µM | [13] 53.2 µM | [14] 63.5 µM | [15] > 75 µM | [20] > 75 µM | [16] 74 µM | [17] > 75 µM | [18] > 75 µM

CCNc1nc(N)c(C(=O)c2ccc(Cl)cc2)s1
inactive: [1] 20.8 µM | [2] 40.3 µM | [3] 5.75 µM | [4] 4.52 µM | [19] 13.6 µM | [6] 29.3 µM | [7] 28.6 µM | [8] > 100 µM | [9] 32.2 µM | [10] 41.8 µM | [11] 22.3 µM | [12] 42.1 µM | [13] 36.3 µM | [14] 39.9 µM | [15] 30.7 µM | [20] 41.7 µM | [17] 71 µM | [18] 45.5 µM

C/C(=N/S(=O)(=O)c1ccc(Cl)c(Cl)c1)OCC(C)(C)C
inactive: [1] > 100 µM | [2] > 100 µM | [3] > 100 µM | [4] > 100 µM | [19] 6.98 µM | [6] > 100 µM | [7] > 100 µM | [8] > 100 µM | [9] > 100 µM | [10] > 100 µM | [11] > 100 µM | [12] > 100 µM | [13] > 100 µM | [14] > 100 µM | [15] > 100 µM | [20] > 100 µM | [16] > 100 µM | [17] > 100 µM | [18] > 100 µM
